The source of these data is PubChem BioAssay AID602191 (Broad Institute, 2012).

Molecules are shown by their SMILES. Activity calls are given as the source filed them.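 Rule for the calls: active = fitted curve reaches 40% activation at a concentration no higher than the top valid tested dose; inconclusive = flat fit between 30% and 70% activation, or poor fit; inactive = uptake decrease, flat fit within 30% of zero, the rest.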 Starred links: 1 amine or outer side, 2 acyl side, 3 side chain; linkers in the order of their positions; H or OH if unused. Non-standard residues stand in square brackets, D forms with d. Residues, ends and D or L forms follow the SMILES beside them. ξ: configuration not given here. X1 = CCCCCCC[C@H](O)C[C@@H](N[*:1])[C@@H](O)C(=O)[*:2]; X3 = COc1ccc(CCCC(N[*:1])C(=O)[*:2])cc1; ξThr(3R) = C[C@@H](O)C(N)C(=O)O; NMeN = CN[C@@H](CC(N)=O)C(=O)O; X2 = C/C=C(/N[*:1])C(=O)[*:2]; Dhb = C/C=C(\N)C(=O)O; Sar = CNCC(=O)O

For one assay, the target named is Scavenger receptor class B member 1 (Mus musculus) (UniProt Q61009). As to the kind of experiment: enhancers of DiI-HDL lipid transfer via SR-BI – cell-based, ldlA[mSR-BI] CHO, DiI fluorescence, cherry-pick, dose response (AID 602191).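 For AC40: potency of activators raising HDL uptake.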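 For activation (HDL uptake increase): 0% = median of DMSO wells and 100% = twice the DMSO signal.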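 Note: cell fluorescence from internalized DiI-labeled HDL after washing.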 The settings on record: ldlA[mSR-BI] CHO cells, 3 h, at 35 µM (top of the series).
Sequence of Scavenger receptor class B member 1 (Mus musculus) (Q61009 whole entry, looked up): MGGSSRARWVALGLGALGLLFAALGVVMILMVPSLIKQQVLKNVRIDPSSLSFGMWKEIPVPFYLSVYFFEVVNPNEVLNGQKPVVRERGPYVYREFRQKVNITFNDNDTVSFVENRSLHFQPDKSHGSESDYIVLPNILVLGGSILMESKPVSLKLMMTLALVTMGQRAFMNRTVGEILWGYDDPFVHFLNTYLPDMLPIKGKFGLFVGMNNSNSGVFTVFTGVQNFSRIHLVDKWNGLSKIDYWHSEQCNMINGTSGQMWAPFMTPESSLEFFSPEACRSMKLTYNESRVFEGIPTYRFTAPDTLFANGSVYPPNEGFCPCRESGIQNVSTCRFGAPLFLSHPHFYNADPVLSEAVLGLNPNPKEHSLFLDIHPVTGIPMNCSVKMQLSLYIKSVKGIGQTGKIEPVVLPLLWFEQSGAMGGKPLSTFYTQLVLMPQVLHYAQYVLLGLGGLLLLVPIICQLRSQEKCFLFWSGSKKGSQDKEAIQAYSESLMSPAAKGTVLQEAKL
As to `CC(C)(C)c1ccccc1NC(=O)CN1C(=O)NC2(CCCCCC2)C1=O`, the activation (HDL uptake increase) is -12.4% (inactive).

Turning to `COc1ccccc1N(C(=O)c1snc(C(N)=O)c1N)C(C(=O)NCCC(C)C)c1ccco1` (stereo not given), the activation (HDL uptake increase) was 7.43% (inactive).

Take `CN1CCN(CCC(=O)Nc2ccccc2Cl)CC1`: the activation (HDL uptake increase) is -8.52% (inactive).

Take `C[C@H](NC(=O)c1nc[nH]c1C(=O)NCc1ccccc1)c1ccccc1`: the activation (HDL uptake increase) is -1.54% (inactive).

Regarding `COc1ccccc1NC(=O)CCN1CCCCCC1`, the activation (HDL uptake increase) was -12.4% (inactive).

For the compound `C/C(=N\N1C(=O)c2ccccc2NC1c1ccco1)c1ccccc1O` (stereo not given), the activation (HDL uptake increase) was -54.6% (inactive).

For `Cc1ccccc1-c1nnc(SCC(=O)Nc2c(C)n(C)n(-c3ccccc3)c2=O)o1`, the activation (HDL uptake increase) was -18.8% (inactive).

Take `Cc1c(C(=O)NCCN2CCOC2=O)oc2c(F)cccc12`: the activation (HDL uptake increase) was -0.811% (inactive).

On to `Nc1nnc(SCC(=O)NN2C(=O)NC3(CCCCC3)C2=O)s1`, for which the activation (HDL uptake increase) was -7.59% (inactive).

On to `COCCNC(=O)c1cnn2c1NC(c1ccco1)CC2C(F)(F)F` (stereo not given), for which the activation (HDL uptake increase) is -4% (inactive).

As for `COc1ccccc1CN(C(=O)CCl)C(C(=O)NC1CCCCC1)c1ccncc1` (stereo not given), the activation (HDL uptake increase) is 3.52% (inactive).

For the compound `Cc1ccc(S(=O)(=O)N(CCC(=O)NCC(c2ccccc2)N(C)C)c2ccccc2)cc1` (stereo not given), the activation (HDL uptake increase) is -5.72% (inactive).

For `O=C(c1ccco1)N1CCN(C(=S)Nc2ccc(F)c(Cl)c2)CC1`, the activation (HDL uptake increase) was -12.3% (inactive).

Consider `COc1cccc(CC(=O)Nc2ccccc2C(=O)N2CCOCC2)c1`, for which the activation (HDL uptake increase) was 1.38% (inactive).

With `COc1ccccc1C(=O)NCC(=O)NCc1cc(=O)n(C)c(=O)n1C`, the activation (HDL uptake increase) is -3.18% (inactive).

On to `COc1ccc(N(CC(=O)NCCSc2ccccn2)S(=O)(=O)c2ccc(C)cc2)cc1OC`, for which the activation (HDL uptake increase) was -0.821% (inactive).

Regarding `CCc1cc(C(=O)Nc2cc(S(=O)(=O)N3CCOCC3)ccc2N2CCN(CC)CC2)sc1C`, the activation (HDL uptake increase) is -0.114% (inactive).

As for `NC(=O)C1CCN(C(=O)c2ccc(NS(=O)(=O)c3ccc(F)c(F)c3)cc2)CC1`, the activation (HDL uptake increase) is -2.55% (inactive).

For `Cc1nc(C2CCCCC2)c(-c2ccccc2)c(N2CCOC2=O)c1C`, the activation (HDL uptake increase) was 1.15% (inactive).

Regarding `CCOC(=O)c1c(NC(=O)C2COc3ccccc3O2)sc2c1CC(C)(C)NC2(C)C` (stereo not given), the activation (HDL uptake increase) is -5.51% (inactive).

`Cc1cc(Cl)ccc1OCC(=O)OCC(=O)N1CCC(C(N)=O)CC1`: the activation (HDL uptake increase) is -16.7% (inactive).

`O=C(NCc1ccccn1)c1ccc(S(=O)(=O)Nc2ccccc2F)cc1`: the activation (HDL uptake increase) is 0.427% (inactive).

Regarding `CCn1nnnc1-c1ccc(OC)c(S(=O)(=O)Nc2ccc(C)c(C)c2)c1`, the activation (HDL uptake increase) is -11.8% (inactive).

For the compound `CCn1c(COC(=O)CNC(=O)c2ccccc2)nc2cc(S(=O)(=O)N(C)C)ccc21`, the activation (HDL uptake increase) was -13.2% (inactive).

On to `O=C(CC1C[C@H](C(=O)N2CCOCC2)[C@@]2(CCC3CCCC3)c3[nH]c4ccccc4c3CCN2C1=O)NCc1cccc(C(F)(F)F)c1` (stereo not given in full), for which the activation (HDL uptake increase) is 25.1% (inactive).

In the case of `COC(=O)[C@@H]1C[C@@]2(O)[C@H](O)[C@H](O)[C@H](O)C[C@H]2N1Cc1cccc2ccccc12`, the activation (HDL uptake increase) was 8.8% (inactive).

For the compound `O=C1N(C2CCCC2)C[C@@H]2C[C@@H](c3cn[nH]c3-c3ccc(Cl)cc3)N3CCC[C@@]123`, the activation (HDL uptake increase) is 0.818% (inactive).

Take `CCN(CC(=O)Nc1ccc(OC)cc1)C(=O)c1ccc(=O)n(Cc2ccccc2)n1`: the activation (HDL uptake increase) is -12.4% (inactive).

For `O=C(CCNS(=O)(=O)c1cccs1)N1CCc2ccccc2C1`, the activation (HDL uptake increase) was -0.366% (inactive).

`O=S(=O)(NCCc1cn2ccccc2n1)c1ccc(-c2ccccc2)cc1`: the activation (HDL uptake increase) is -1.66% (inactive).

As to `COc1ccc(CCNS(=O)(=O)c2cn(C)c(=O)n(C)c2=O)cc1OC`, the activation (HDL uptake increase) was -3.3% (inactive).

With `C=CC[C@@H](CC(=O)N[C@@H](CO)Cc1ccccc1)C(=O)N[C@H](COC(=O)[C@@H](CC=C)CC(=O)OC(C)(C)C)Cc1c[nH]c2ccccc12`, the activation (HDL uptake increase) was 65.3% (inactive).

Regarding `COc1cccc(C(=O)COC(=O)CCC(=O)c2ccccc2)c1`, the activation (HDL uptake increase) is -0.792% (inactive).

Take `COc1ccc(/C(O)=C2/C(=O)C(=O)N(CCN3CCOCC3)C2c2ccccn2)cc1` (stereo not given): the activation (HDL uptake increase) is -1.9% (inactive).

With `O=C(O)CCn1cc(/C=C/C(=O)c2ccc(Cl)cc2)c(-c2ccc(Br)cc2)n1`, the activation (HDL uptake increase) was -9.53% (inactive).

In the case of `O=C1C2CCCN2C(=O)N1CCCCN1CCN(c2ccccc2)CC1` (stereo not given), the activation (HDL uptake increase) is 10.3% (inactive).

For `COCCn1c(=O)[nH]c2cc(C(=O)N3CCN(c4ccccc4OC)CC3)ccc2c1=O`, the activation (HDL uptake increase) was -12.6% (inactive).

With `O=C(CCN1C(=O)[C@@H]2Cc3ccccc3CN2C1=O)N[C@@H](C(=O)O)c1ccccc1`, the activation (HDL uptake increase) is -2.01% (inactive).

`CN(c1cccc(NC(=O)CN(c2ccc(C34CC5CC(CC(C5)C3)C4)cc2)S(C)(=O)=O)c1)S(C)(=O)=O`: the activation (HDL uptake increase) is 17.6% (inactive).

On to `COc1cccc(OC)c1C(=O)N1CCN(Cc2ccccc2C)CC1`, for which the activation (HDL uptake increase) was -7.18% (inactive).

Regarding `CCCN1CCC(NC(=O)C2CCCCC2C(=O)O)CC1` (stereo not given), the activation (HDL uptake increase) was -8.02% (inactive).

Regarding `Nc1ncnc2c1ncn2[C@@H]1O[C@H](CNCc2cccn2-c2nccs2)[C@@H](O)[C@H]1O`, the activation (HDL uptake increase) is 10.3% (inactive).

`O=C(COc1ccccc1Cc1ccccc1)Nc1cccnc1`: the activation (HDL uptake increase) was -14.9% (inactive).

Consider `Cn1nnnc1SCCNC(=O)C1CCC(=O)N(Cc2ccccc2F)C1` (stereo not given), for which the activation (HDL uptake increase) is -10.7% (inactive).

`COc1ccc(C(=O)C2CCCN(C(=O)/C=C/c3ccccn3)C2)c(C)c1` (stereo not given): the activation (HDL uptake increase) is -6.34% (inactive).

Take `COc1ccc(N2CCN(C(=O)NC(=O)c3ccc(Cl)cc3)CC2)cc1`: the activation (HDL uptake increase) was -6.64% (inactive).

For `C=CC[C@@H](CC(=O)N[C@@H](CO)Cc1ccccc1)C(=O)N[C@@H](COC(=O)[C@@H](CC=C)Cc1ccc(F)cc1)Cc1c[nH]c2ccccc12`, the activation (HDL uptake increase) is -7.03% (inactive).

For the compound `CCc1nnc(NC(=O)c2nc(S(=O)(=O)Cc3ccc(C)cc3)ncc2Cl)s1`, the activation (HDL uptake increase) is -22.7% (inactive).

Take `COc1cccc(CN2CCNC(=O)C2CC(=O)NCCCn2ccnc2)c1` (stereo not given): the activation (HDL uptake increase) was 13% (inactive).

As to `O=C(O)C1CCN(Cc2cnn(-c3ccccc3)c2-n2cccc2)CC1`, the activation (HDL uptake increase) was 6.93% (inactive).

Regarding `O=C(CNC(=O)c1ccco1)NCCCc1ccccc1`, the activation (HDL uptake increase) is -5.97% (inactive).

As for `O=S(=O)(c1ccccc1)N1CCN(Cc2c(O)ccc3ccccc23)CC1`, the activation (HDL uptake increase) is -12% (inactive).

Turning to `COc1cc(C(CCN2CCCC(C)C2)c2c(OC)cc(OC)c3c(-c4ccccc4)cc(=O)oc23)cc(OC)c1OC` (stereo not given), the activation (HDL uptake increase) was -1.55% (inactive).

As to `CCN1CCN(c2ccc(S(=O)(=O)N3CCCCC3)cc2NC(=O)c2cccc(C(F)(F)F)c2)CC1`, the activation (HDL uptake increase) is 7.47% (inactive).

In the case of `CCCCn1c(N)c(N(CCOC)C(=O)C2CC(=O)N(Cc3ccco3)C2)c(=O)[nH]c1=O` (stereo not given), the activation (HDL uptake increase) was 0.156% (inactive).

For `O=C(Nc1cccc(S(=O)(=O)NC2=NCCC2)c1)c1ccc(F)cc1F`, the activation (HDL uptake increase) is -14.5% (inactive).

Take `COc1ccc(N(C(=O)CNC(=O)c2ccco2)C(C(=O)NC2CCCCC2)c2ccncc2)cc1` (stereo not given): the activation (HDL uptake increase) is 4.83% (inactive).

In the case of `CC1CCCC(C)N1C(=O)COC(=O)CN1C(=O)c2ccccc2C1=O` (stereo not given), the activation (HDL uptake increase) was -4.2% (inactive).

`O=C(Cc1ccc(S(=O)(=O)N2CCOCC2)s1)OCc1ccc(Cl)cc1`: the activation (HDL uptake increase) was -16.7% (inactive).

With `Cc1ccc(C(=O)NCCCN2CCOCC2)cc1S(=O)(=O)N1CCCCC1`, the activation (HDL uptake increase) was 9.53% (inactive).

Consider `CNC[C@H](CC1CCCCC1)NC[C@H](Cc1ccccc1)NCCC12CC3CC(CC(C3)C1)C2`, for which the activation (HDL uptake increase) is -31.7% (inactive).

Regarding `Cc1cc(N2C(=O)C3C4C=CC(C4)C3C2=O)no1` (stereo not given), the activation (HDL uptake increase) was -2.45% (inactive).

Consider `COc1ccccc1OCC(=O)OCc1cc(-c2ccco2)on1`, for which the activation (HDL uptake increase) was -5.82% (inactive).

For `C=C1[C@@H](OC(C)=O)[C@]23C[C@@H]1[C@@H](OC(C)=O)CC2[C@]12C4C[C@H]3[C@H]1N(CC)C[C@]4(C)CC[C@@H]2O` (stereo not given in full), the activation (HDL uptake increase) is -3.15% (inactive).

For `O=C(CC1C(=O)NCCN1Cc1ccc(Cl)c(F)c1)NC1CCCCC1` (stereo not given), the activation (HDL uptake increase) was -11.9% (inactive).

Staying with this assay, now noted: ldlA[mSR-BI] CHO cells, DiI-HDL uptake fluorescence, 3 h.
`CCn1c(C(=O)O)c(CC(=O)NC2CCCCCC2)c2ccccc21`: the AC40 was > 35 µM (inactive).

Turning to `COc1ccc2sc(-c3ccccc3OC)c(-c3ccc(OCCN4CCCC4)cc3)c2c1`, the AC40 is > 35 µM (inactive).

`CN(C)C(=O)CCc1ccc2c3c([nH]c2c1)[C@]1(CCC2CCCC2)[C@@H](C(=O)N2CCOCC2)C[C@H](CC(=O)NCC24CC5CC(CC(C5)C2)C4)C(=O)N1CC3`: the AC40 is > 35 µM (inactive).

With `C[C@H](CO)N1C[C@H](C)[C@@H](CN(C)S(=O)(=O)c2ccccc2)Oc2ccc(NC(=O)Nc3ccc(C(F)(F)F)cc3)cc2C1=O`, the AC40 is 34.6 µM.

Regarding `C/C=C1\NC(=O)[C@H](CC(N)=O)N(C)C(=O)C([C@@H](C)O)NC(=O)C(CCCc2ccc(OC)cc2)NC(=O)[C@H](C(C)C)NC(=O)/C(=C\C)NC(=O)[C@H](O)[C@@H](C[C@@H](O)CCCCCCC)NC(=O)[C@H](C)NC(=O)CN(C)C(=O)[C@H](CCC(N)=O)NC1=O` (stereo partly drawn) (cyclo(A[X1][X2]V[X3][ξThr(3R)][NMeN][Dhb]Q[Sar])), the AC40 is 28 µM.
